System: herpes viral infections
Assay: treating herpes outbreaks with loperamide taken by mouth
Type: in vivo
Conditions: herpes outbreak; patient taking loperamide
Source text: Referring to FIG. 1, the present invention may include a new use of loperamide 100 as an anti-viral agent. Herpes, which erupts during stress and may include repeated flare-ups over, sometimes, weeks may be treated with the new use of loperamide 100 disclosed herein, which tends to eliminate this recycling when taken at every flare-up. Specifically, the new use 100 of loperamide as an anti-viral agent may have the following steps: at the onset of symptoms, the user takes the recommended amount at the recommended time intervals, such as two 2 mg loperamide tablets four or five times a day, in step 110; if pain persists, the user may review the dosage, in step 120; after 72 hours, when pain has subsided and blisters are gone or only thin scabs, the patient may discontinue use in step 130; magnesium hydroxide may be used for bowel function during treatment, in step 140; and in the case of a new flare-up, the user-patient may repeat the dosage cycle in step 150.

CN(C)C(=O)C(CCN1CCC(O)(c2ccc(Cl)cc2)CC1)(c1ccccc1)c1ccccc1 [loperamide]
effect on the virus's activity: stop the virus's activity
time to full recovery: three
time to stop the pain: ≤ 30 min

From US20200155532A1, “METHOD FOR TREATING VIRAL INFECTIONS WITH LOPERAMIDE” (priority 2018, published 2020)
